Measured values as given in patent EP0071535B1, “(4-(2 and/or 3-Thienylacetamido)-phenoxy)-hydroxyaminopropanes, their preparation, their therapeutic use and intermediates” (CARPIBEM (CENTRE D'ACTIVITE ET DE RECHERCHE PHARMACEUTIQUE …, priority 1981, dated 1983).

Tests used:
[1] = system: effets β2 (diminution de la pression artérielle diastolique) de l'isoprénaline; experiment: β-blocking activity: inhibition of the β2 effects of intravenous isoprenaline in anaesthetised dogs; assay type: in vivo, chiens; details: dog; for inhibition at 0.001 mg/kg / inhibition at 0.003 mg/kg / inhibition at 0.01 mg/kg / inhibition at 0.1 mg/kg: Canis lupus familiaris, iv, inhibition given with negative sign, read-out: % d'inhibition des effets β2^⊕ de l'Isoprénaline; for inhibition at 0.001 mg/kg: 0,001 mg/kg I.V.; for inhibition at 0.003 mg/kg: 0,003 mg/kg I.V.; for inhibition at 0.01 mg/kg: 0,010 mg/kg I.V.; for inhibition at 0.1 mg/kg: 0,100 mg/kg I.V.
Procedure: (§1) Des chiens tout-venants mâles ou femelles sont anesthésiés au mébubarbital sodique (30 mg/kg I.V.) et ventilés artificiellement par une pompe Pesty RPP. Ils sont supplémentés en oxygène.
(§2) On mesure: • - la pression carotidienne systolique et diastolique • - la force contractile du myocarde.
(§3) Les signaux sont amplifiés et enregistrés sur Dynograph Beckman.
(§4) L'activité β bloquante adrénergique a été étudiée vis-à-vis des effets β1 (augmentation de la force contractile du myocarde) et des effets P2 (diminution de la pression artérielle disstolique) de l'isoprénaline administrée par voie intraveineuse.
(§5) On calcule le pourcentsge d'inhibition des effets β1 et des effets β2 de l'isoprénaline en fonction des doses (mg.kg I.V.) des différents exemples.
(§6) Les exemples sont injectés dans le veine saphène aux doses (exprimées en base) de: 0,0003 0,001 0,003 0,01 0,1 1,0 et 4,0 ou 8,0 mg.kg-1.

[2] = system: effets β1 (augmentation de la force contractile du myocarde) de l'isoprénaline; experiment: β-blocking activity: inhibition of the β1 effects of intravenous isoprenaline in anaesthetised dogs; assay type: in vivo, chiens; details: dog; for inhibition at 0.001 mg/kg / inhibition at 0.003 mg/kg / inhibition at 0.01 mg/kg / inhibition at 0.1 mg/kg: Canis lupus familiaris, iv, inhibition given with negative sign, read-out: % d'inhibition des effets β1^(+) de l'Isoprénaline; for inhibition at 0.001 mg/kg: 0,001 mg/kg I.V.; for inhibition at 0.003 mg/kg: 0,003 mg/kg I.V.; for inhibition at 0.01 mg/kg: 0,010 mg/kg I.V.; for inhibition at 0.1 mg/kg: 0,100 mg/kg I.V.
Procedure: as §1, §2, §3, §4, §5, §6

[3] = system: rat génétiquement hypertendu: Rat OKAMOTO; experiment: Antihypertensive activity in spontaneously hypertensive rats (tail-cuff systolic pressure and heart rate after oral dosing); assay type: in vivo
Procedure: Des rats mâles âgés de 13 à 21 semaines présentant une hypertension spontanée génétiquement transmissible (souche OKAMOTO provenance IFFA CREDO) sont placés dans une enceinte thermostatée à 38°C. Les rats sont laissés en situation libre. La pression artérielle est mesurée par un sphygmomanomètre Narco Biosystem. Un manchon est placé à la base de la queue et un détecteur enregistre le pouls en aval du manchon. Celui-ci est gonflé jusqu'à suppression du pouls il est ensuite progressivement dégonflé. La pression mesurée à la reprise des battements cardiaques est la pression artérielle systolique. On calcule la fréquence cardiaque à partir de l'enregistrement du pouls artériel. Les produits à étudiar sont mis en suspension el administrés par voie orale sous un volume de 1 ml pour 100 g de poids corporel. Les mesures sont répétées à intervalles réguliers.
Les valeurs moyennes avant traitement pour les différents lots de rats sont pour la pression artérielle systolique de 190 à 200 mmHg et pour la fréquence cardiaque de 305 à 350 battements par minute.
Le tableau III ci-après donne la moyenne des variations de la pression systolique (mmHg) de la fréquence cardisque (battements/minute) et les écarts type à la moyenne obtenus 1 heure 3 heures et 5 heures après administration orale.

[4] = 0.1 mg.kg^-1 voie intraveineuse
[5] = 1.0 mg.kg^-1 voie intraveineuse
[6] = 8.0 mg.kg^-1 voie intraveineuse

SMILES	inhibition at 0.001 mg/kg [1] [%]	inhibition at 0.003 mg/kg [1] [%]	inhibition at 0.01 mg/kg [1] [%]	inhibition at 0.1 mg/kg [1] [%]	inhibition at 0.001 mg/kg [2] [%]	inhibition at 0.003 mg/kg [2] [%]	inhibition at 0.01 mg/kg [2] [%]	inhibition at 0.1 mg/kg [2] [%]	Fréquence cardiaque Δ (battements/min) T+1 heure m (sm) ([3]; 64 mg.kg^-1 V.O)	Pression systolique Δ (mmHg) T+1 heure m (sm) ([3]; 64 mg.kg^-1 V.O)	Pression systolique Δ (mmHg) T+3 heures m (sm) ([3]; 64 mg.kg^-1 V.O)	Fréquence cardiaque Δ (battements/min) T+5 heures m (sm) ([3]; 64 mg.kg^-1 V.O)	Pression systolique Δ (mmHg) T+5 heures m (sm) ([3]; 64 mg.kg^-1 V.O)	Fréquence cardiaque Δ (battements/min) T+1 heure m (sm) ([3]; 128 mg.kg^-1 V.O)	Pression systolique Δ (mmHg) T+1 heure m (sm) ([3]; 128 mg.kg^-1 V.O)	Fréquence cardiaque Δ (battements/min) T+3 heures m (sm) ([3]; 128 mg.kg^-1 V.O)	Pression systolique Δ (mmHg) T+3 heures m (sm) ([3]; 128 mg.kg^-1 V.O)	Fréquence cardiaque Δ (battements/min) T+5 heures m (sm) ([3]; 128 mg.kg^-1 V.O)	Pression systolique Δ (mmHg) T+5 heures m (sm) ([3]; 128 mg.kg^-1 V.O)	Fréquence cardiaque Δ (battements/min) T+3 heures m (sm) ([3]; 64 mg.kg^-1 V.O)	also measured
CC(C)(C)NCC(O)COc1ccc(NC(=O)Cc2cccs2)cc1F (centres unmarked) [exemple 47, 1-[2-fluoro 4-(2-thiénylscétamido)phénoxy] 3-terbutylamino 2-propanol]	-24	-4	0	-12	-12	-33	-66	-96	–	–	–	–	–	–	–	–	–	–	–	–	–
CC(C)(C)NCC(O)COc1ccc(NC(=O)Cc2ccsc2)cc1Cl (centres unmarked) [exemple 45, 1-[2-chloro 4-(3-thiénylacétamido)phénoxy] 3-terbutylamino 2-propanol]	-12	-5	-23	-33	-30	-60	-86	-100	+45 (6) battements/min	-32 (5) mmHg	-14 (9) mmHg	+30 (10) battements/min	-28 (5) mmHg	–	–	–	–	–	–	–	–
CC(C)NCC(O)COc1ccc(NC(=O)Cc2ccsc2)cc1Cl (centres unmarked) [exemple 46, 1-[2-chloro 4-(3-thiénylacétamido)phénoxy] 3-isopro-pylamino 2-propanol]	-5	-5	-20	-19	-17	-44	-84	-100	–	–	–	–	–	–	–	–	–	–	–	–	–
CC(C)NCC(O)COc1ccc(NC(=O)Cc2cccs2)cc1Cl (centres unmarked) [exemple 44, 1-[2-chloro 4-(2-thiénylacétamido)phénoxy] 3-isopropylamino 2-propanol]	-11	-22	-18	-15	-27	-46	-67	-82	–	–	–	–	–	+68 (5) battements/min	-37 (11) mmHg	+45 (12) battements/min	-48 (11) mmHg	+52 (11) battements/min	-53 (11) mmHg	–	–
CC(C)(C)NCC(O)COc1ccc(NC(=O)Cc2ccsc2)cc1Br (centres unmarked) [exemple 41, 1-[2-bromo 4-(3-thiénylacétamido)phénoxy] 3-terbutylamino 2-propanol]	-3	0	-31	-55	-12	-49	-83	-97	+57 (18) battements/min	-44 (14) mmHg	-30 (10) mmHg	+68 (16) battements/min	-33 (12) mmHg	–	–	–	–	–	–	+55 (15) battements/min	–
CC(C)(C)NCC(O)COc1ccc(NC(=O)Cc2cccs2)cc1Br (centres unmarked) [exemple 39, 1-[2-bromo 4-(2-thiénylacétamido)phénoxy] 3-terbutylamino 2-propanol]	0	0	-5	-49	-11	-65	-89	-100	–	–	–	–	–	+47 (15) battements/min	-33 (9) mmHg	+56 (4) battements/min	-34 (11) mmHg	+47 (4) battements/min	-43 (9) mmHg	–	–
C=CCc1cc(NC(=O)Cc2cccs2)ccc1OCC(O)CNC(C)(C)C (centres unmarked) [exemple 11, 1-[2-allyl 4-(2-thiénylacétamido)phénoxy] 3-ter-butylamino 2-propanol]	0	0	0	-17	-11	-37	-70	-100	+7 (8) battements/min	-54 (1) mmHg	-49 (10) mmHg	0 (9) battements/min	-44 (11) mmHg	–	–	–	–	–	–	+10 (9) battements/min	Pourcentages d'inhibition des effets β2 de l'Isoprénaline [1, 4]: 17%; Pourcentages d'inhibition des effets β2 de l'Isoprénaline [1, 5]: 77%; Pourcentages d'inhibition des effets β2 de l'Isoprénaline [1, 6]: 100%; Pourcentages d'inhibition des effets β1 de l'Isoprénaline ([2]; 0.001 mg.kg^-1 voie intraveineuse): 11%; Pourcentages d'inhibition des effets β1 de l'Isoprénaline ([2]; 0.003 mg.kg^-1 voie intraveineuse): 37%; Pourcentages d'inhibition des effets β1 de l'Isoprénaline ([2]; 0.01 mg.kg^-1 voie intraveineuse): 70%; Pourcentages d'inhibition des effets β1 de l'Isoprénaline [2, 4]: 100%; Pourcentages d'inhibition des effets β1 de l'Isoprénaline [2, 5]: 100%; Pourcentages d'inhibition des effets β1 de l'Isoprénaline [2, 6]: 100%
CC(C)NCC(O)COc1ccc(NC(=O)Cc2cccs2)cc1F (centres unmarked) [exemple 48, 1-[2-fluoro 4-(2-thiénylacétamido)phénoxy] 3-isopropylamino 2-propanol]	-27	-31	-46	-52	-11	-23	-41	-83	+38 (10) battements/min	-51 (6) mmHg	-50 (6) mmHg	+27 (10) battements/min	-45 (6) mmHg	–	–	–	–	–	–	+41 (8) battements/min	–
CC(C)NCC(O)COc1ccc(NC(=O)Cc2cccs2)cc1Br (centres unmarked) [exemple 40, 1-[2-bromo 4-(2-thiénylacétamido)phénoxy] 3-isopropylamino 2-propanol]	0	0	0	-4	0	-19	-53	-93	–	–	–	–	–	+23 (23) battements/min	-58 (10) mmHg	+20 (14) battements/min	-63 (7) mmHg	+18 (11) battements/min	-63 (3) mmHg	–	–
